For 24 compounds, Ki results are on record in BindingDB's records for doi:10.1016/s0014-2999(03)02008-9 (Harvard University, 2003).

In general, Ki refers to a measure of affinity in units of concentration, obtained from inhibition or displacement. A higher Ki goes with lower affinity.

Each structure is given as a SMILES string.

For assay [1], the target named is 5-hydroxytryptamine receptor 2A (Rattus norvegicus, UniProt P14842).
The target in assay [2] is D(1A) dopamine receptor (Rattus norvegicus, UniProt P18901).
The target of assay [3] is D(2) dopamine receptor (Rattus norvegicus, UniProt P61169).
Assay [4] deals with T1, Alpha-2C adrenergic receptor (Rattus norvegicus, UniProt P22086).
T1 sequence (P22086 whole entry): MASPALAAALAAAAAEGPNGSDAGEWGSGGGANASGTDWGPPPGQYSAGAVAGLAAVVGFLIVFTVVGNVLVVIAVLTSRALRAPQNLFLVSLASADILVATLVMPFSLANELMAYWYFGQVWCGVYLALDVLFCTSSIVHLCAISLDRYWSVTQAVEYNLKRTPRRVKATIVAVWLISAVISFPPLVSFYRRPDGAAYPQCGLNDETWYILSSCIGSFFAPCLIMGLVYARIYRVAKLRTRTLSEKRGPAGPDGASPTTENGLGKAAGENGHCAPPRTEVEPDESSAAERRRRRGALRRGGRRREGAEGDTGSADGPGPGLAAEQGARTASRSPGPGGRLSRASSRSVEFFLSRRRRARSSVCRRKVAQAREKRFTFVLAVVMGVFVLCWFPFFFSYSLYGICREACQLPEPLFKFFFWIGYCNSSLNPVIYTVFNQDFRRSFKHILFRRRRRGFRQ

The target of assay [5] is D(1B) dopamine receptor (Homo sapiens, UniProt P21918).
For assay [6], the target named is T2, Solute carrier family 22 member 2 (Rattus norvegicus, UniProt Q9R0W2).
T2 sequence (Q9R0W2 whole entry): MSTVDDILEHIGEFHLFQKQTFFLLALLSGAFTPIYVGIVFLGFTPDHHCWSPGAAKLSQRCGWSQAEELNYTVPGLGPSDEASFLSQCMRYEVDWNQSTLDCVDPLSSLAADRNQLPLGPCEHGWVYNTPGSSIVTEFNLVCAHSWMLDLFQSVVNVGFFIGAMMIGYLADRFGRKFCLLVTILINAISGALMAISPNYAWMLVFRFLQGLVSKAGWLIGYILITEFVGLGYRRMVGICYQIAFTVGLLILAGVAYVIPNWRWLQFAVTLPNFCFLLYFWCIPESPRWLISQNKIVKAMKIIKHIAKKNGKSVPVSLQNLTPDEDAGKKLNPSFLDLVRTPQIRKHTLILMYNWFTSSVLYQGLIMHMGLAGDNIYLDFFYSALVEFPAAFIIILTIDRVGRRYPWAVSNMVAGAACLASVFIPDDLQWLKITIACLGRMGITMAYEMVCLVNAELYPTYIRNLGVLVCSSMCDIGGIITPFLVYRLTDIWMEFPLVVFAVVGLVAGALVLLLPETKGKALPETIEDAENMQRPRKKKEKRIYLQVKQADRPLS

Sequence of 5-hydroxytryptamine receptor 2A (P14842 whole entry): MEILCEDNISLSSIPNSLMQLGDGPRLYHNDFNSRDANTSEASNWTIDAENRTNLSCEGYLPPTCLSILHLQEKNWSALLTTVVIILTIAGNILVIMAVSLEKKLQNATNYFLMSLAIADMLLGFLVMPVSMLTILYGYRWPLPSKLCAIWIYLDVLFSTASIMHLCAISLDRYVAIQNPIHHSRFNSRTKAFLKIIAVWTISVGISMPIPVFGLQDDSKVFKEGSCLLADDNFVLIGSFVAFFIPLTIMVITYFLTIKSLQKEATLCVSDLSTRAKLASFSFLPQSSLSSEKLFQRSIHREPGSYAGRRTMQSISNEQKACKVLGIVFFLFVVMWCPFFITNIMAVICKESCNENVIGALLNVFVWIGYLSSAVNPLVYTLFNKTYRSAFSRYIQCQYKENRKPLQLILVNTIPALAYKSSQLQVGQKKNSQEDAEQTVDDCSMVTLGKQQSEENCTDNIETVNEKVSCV
Sequence of D(2) dopamine receptor (P61169 whole entry): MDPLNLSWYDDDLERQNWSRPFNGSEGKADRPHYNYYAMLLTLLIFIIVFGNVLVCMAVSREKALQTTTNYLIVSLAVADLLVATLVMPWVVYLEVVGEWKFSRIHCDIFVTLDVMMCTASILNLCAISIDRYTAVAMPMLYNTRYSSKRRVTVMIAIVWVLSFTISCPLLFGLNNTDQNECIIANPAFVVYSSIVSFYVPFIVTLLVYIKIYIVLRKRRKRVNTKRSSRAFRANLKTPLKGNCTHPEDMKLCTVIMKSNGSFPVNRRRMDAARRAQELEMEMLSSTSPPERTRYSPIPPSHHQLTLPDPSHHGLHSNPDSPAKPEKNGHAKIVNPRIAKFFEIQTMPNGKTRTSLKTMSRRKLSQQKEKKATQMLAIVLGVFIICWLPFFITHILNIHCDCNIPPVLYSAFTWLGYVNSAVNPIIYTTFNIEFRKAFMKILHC
Sequence of D(1A) dopamine receptor (P18901 whole entry): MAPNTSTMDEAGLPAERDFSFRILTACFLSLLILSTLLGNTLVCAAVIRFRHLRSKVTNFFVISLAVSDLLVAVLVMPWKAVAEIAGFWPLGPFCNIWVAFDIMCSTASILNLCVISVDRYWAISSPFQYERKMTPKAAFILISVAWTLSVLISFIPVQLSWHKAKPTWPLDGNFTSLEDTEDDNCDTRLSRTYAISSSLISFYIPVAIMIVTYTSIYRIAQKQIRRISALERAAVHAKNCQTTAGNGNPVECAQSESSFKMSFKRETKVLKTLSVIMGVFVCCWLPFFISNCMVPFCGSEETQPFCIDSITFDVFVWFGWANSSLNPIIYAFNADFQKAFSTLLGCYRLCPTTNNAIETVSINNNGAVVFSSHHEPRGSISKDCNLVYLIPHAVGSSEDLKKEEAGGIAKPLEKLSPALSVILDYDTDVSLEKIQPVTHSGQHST
Sequence of D(1B) dopamine receptor (P21918 whole entry): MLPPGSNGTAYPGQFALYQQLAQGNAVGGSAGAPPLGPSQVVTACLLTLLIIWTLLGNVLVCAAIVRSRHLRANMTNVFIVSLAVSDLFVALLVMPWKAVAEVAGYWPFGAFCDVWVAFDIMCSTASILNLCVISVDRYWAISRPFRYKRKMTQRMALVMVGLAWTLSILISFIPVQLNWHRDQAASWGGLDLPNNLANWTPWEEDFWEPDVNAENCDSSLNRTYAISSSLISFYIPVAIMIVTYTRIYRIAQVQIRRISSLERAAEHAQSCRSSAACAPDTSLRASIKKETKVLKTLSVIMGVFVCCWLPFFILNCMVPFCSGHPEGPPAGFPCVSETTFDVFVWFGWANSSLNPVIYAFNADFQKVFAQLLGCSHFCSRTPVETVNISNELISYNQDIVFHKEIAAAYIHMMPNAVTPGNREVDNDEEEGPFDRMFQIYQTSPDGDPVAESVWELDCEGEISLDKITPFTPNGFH

As for `Cc1ccc(C2CN(C)CCc3c2cc(O)c(O)c3Br)cc1` (stereo not drawn) [MCL-212], the Ki in assay [1] stood at 124 nM; in assay [2] it was 19.3 nM; in assay [3] it was 1030 nM; in assay [4], 493 nM; in assay [5] it was 4.36 nM.
For `C=CCN1CCc2c(cc(O)c(O)c2Br)C(c2ccccc2C(F)(F)F)C1` (stereo not drawn) [MCL-217], the Ki in assay [1], in assay [2], in assay [3] and in assay [4] was over 10000 nM in each case.
With `Oc1cc2c(c(Cl)c1O)CCNCC2c1ccccc1` (stereo not drawn) [NSC_1218], the figures for the Ki in assay [1] and in assay [4] were 995 nM and 509 nM, respectively.
For `C=CCN1CCc2c(cc(O)c(O)c2Br)C(c2ccccc2C)C1` (stereo not drawn) [MCL-215], the inhibition constant Ki in assay [1] turned out to be 742 nM; in assay [2], 37.1 nM; in assay [3], 239 nM; in assay [4] it was 414 nM.
As for `C=CCN1CCc2c(cc(O)c(O)c2Cl)C(c2cccc(C)c2)C1` (stereo not drawn) [MCL-210], the Ki in assay [1] is 995 nM; in assay [2], 0.52 nM; in assay [3], 119 nM; in assay [4], 877 nM; in assay [5] it was 9.94 nM.
Regarding `CN1CCc2c(cc(O)c(O)c2Br)[C@H](c2cccc(C(F)(F)F)c2)C1` [MCL-211], the Ki in assay [1] is 68.9 nM; in assay [2], 8.66 nM; in assay [3] it was 1050 nM; in assay [4] it was 365 nM.
As for `Cc1cccc([C@H]2CN(C)CCc3c2cc(O)c(O)c3Cl)c1`, the Ki came out at 266 nM in assay [1]; 1.18 nM in assay [2]; 920 nM in assay [3]; 295 nM in assay [4]; 7.56 nM in assay [5].
With `Cc1cccc(C2CNCCc3c2cc(O)c(O)c3Br)c1` (stereo not drawn) [MCL-205], the Ki in assay [1] came out at 1300 nM; in assay [2], 4.41 nM; in assay [3], 1070 nM; in assay [4] it was 338 nM; in assay [5], 13.7 nM.
Regarding `Cc1ccc(C2CN(C)CCc3c2cc(O)c(O)c3Cl)cc1` (stereo not drawn) [MCL-206], the inhibition constant (Ki) is 147 nM in assay [1]; 1.93 nM in assay [2]; 362 nM in assay [3]; 250 nM in assay [4]; 3.96 nM in assay [5].
On to `Cc1cccc([C@H]2CN(C)CCc3c2cc(O)c(O)c3Cl)c1` [MCL-201], for which the values for the inhibition constant (Ki) in assay [2], in assay [3] and in assay [4] were 21.3 nM, 2140 nM and 632 nM, respectively.
With `Cc1cccc(C2CNCCc3c2cc(O)c(O)c3Cl)c1` (stereo not drawn) [MCL-209], the inhibition constant Ki in assay [1] stood at 1200 nM; in assay [2] it was 0.6 nM; in assay [3] it was 5000 nM; in assay [4] it was 240 nM; in assay [5], 0.88 nM.
On to `Cc1ccccc1C1CN(C)CCc2c1cc(O)c(O)c2Cl` (stereo not drawn) [NSC_0], for which the Ki turned out to be 70.6 nM in assay [1], 0.46 nM in assay [2], 66.6 nM in assay [4] and 2.32 nM in assay [5].
For `Cc1ccccc1C1CN(C)CCc2c1cc(O)c(O)c2Br` (stereo not drawn) [MCL-214], the Ki in assay [1] came to 45.8 nM; in assay [2], 1.1 nM; in assay [3], 409 nM; in assay [4], 186 nM; in assay [5] it was 3.42 nM.
Regarding `Oc1cc2c(cc1O)C(c1ccccc1)CNCC2` (racemic) [(+/-)-SKF-38393], the inhibition constant (Ki) in assay [1] is over 10000 nM; in assay [4], 248 nM.
`Oc1cc2c(c(Br)c1O)CCNC[C@H]2c1cccc(C(F)(F)F)c1` [MCL-218]: the Ki in assay [1] was 992 nM; in assay [2], 1240 nM; in assay [3], over 10000 nM; in assay [4], 776 nM.
Consider `C=CCN1CCc2c(cc(O)c(O)c2Cl)C(c2ccccc2)C1` (racemic) [SKF 82958], for which the Ki in assay [1] was 1610 nM; in assay [4], 558 nM.
On to `Cc1cccc([C@@H]2CN(C)CCc3c(Cl)cc(O)cc32)c1` [MCL-230A], for which the Ki in assay [2] was over 10000 nM.
On to `C=CCN1CCc2c(cc(O)c(O)c2Br)C(c2cccc(C)c2)C1` (stereo not drawn) [MCL-204], for which the Ki in assay [1] was 598 nM; in assay [2], 0.11 nM; in assay [3], 83.8 nM; in assay [4], 709 nM; in assay [5] it was 12 nM.
As for `CN1CCc2cc(Cl)c(O)cc2C(c2ccccc2)C1` (stereo not drawn) [NSC_5018], the Ki in assay [1] stood at 10.8 nM; in assay [4], 208 nM.
In the case of `C=CCN1CCc2cc(O)c(O)cc2C(c2ccccc2)C1` (stereo not drawn), the Ki in assay [1] is 3000 nM; in assay [4], 632 nM.
For `Cc1cccc([C@@H]2CN(C)CCc3c2cc(O)c(O)c3Br)c1` [MCL-203], the Ki is 224 nM in assay [1]; 0.19 nM in assay [2]; 440 nM in assay [3]; 461 nM in assay [4]; 2.47 nM in assay [5].
On to `Cc1cccc([C@@H]2CN(C)CCc3c2cc(O)c(O)c3Cl)c1` [MCL-202], for which the inhibition constant (Ki) in assay [1] was 88.6 nM; in assay [2] it was 0.49 nM; in assay [3], 515 nM; in assay [5], 1.53 nM; in assay [6] it was 3000 nM.
`Cc1ccccc1C1CNCCc2c1cc(O)c(O)c2Br` (stereo not drawn) [MCL-216]: the Ki came to 398 nM in assay [1]; 1.81 nM in assay [2]; 19.5 nM in assay [3]; 133 nM in assay [4]; 1.95 nM in assay [5].
Take `C=CCN1CCc2c(cc(O)c(O)c2Br)C(c2ccc(C)cc2)C1` (stereo not drawn) [MCL-213]: the Ki was determined as 977 nM in assay [1], 128 nM in assay [2], 1700 nM in assay [3] and 1090 nM in assay [4].
